In the kinase profiling compilation of Christmann-Franck et al. (2016):

Tests used:
Settings in all cases: compound 10.0 µM
[1] = target: CDK1 CCNA2 (human) (UniProt P20248+P06493)
[2] = target: MAPK11 (human) (UniProt Q15759)
[3] = target: RET (human) (UniProt P07949)
[4] = target: WNK3 (human) (UniProt Q9BYP7)
[5] = target: TYK2 JH1 JH2 (human) (UniProt P29597)
[6] = target: CDK4 CCND3 (human) (UniProt P11802+P30281)
[7] = target: PRKCI (human) (UniProt P41743)
[8] = target: CSNK2A2 (human) (UniProt P19784)
[9] = target: TTK (human) (UniProt P33981)
[10] = target: MUSK (human) (UniProt O15146)
[11] = target: MAPKAPK2 (human) (UniProt P49137)
[12] = target: FER (human) (UniProt P16591)
[13] = target: NTRK1 (human) (UniProt P04629)
[14] = target: JAK3 JH1 JH2 (human) (UniProt P52333)
[15] = target: CHEK1 (human) (UniProt O14757)
[16] = target: SYK (human) (UniProt P43405)
[17] = target: TGFBR1 (human) (UniProt P36897)
[18] = target: LIMK1 (human) (UniProt P53667)
[19] = target: RPS6KB2 (human) (UniProt Q9UBS0)
[20] = target: GRK7 (human) (UniProt Q8WTQ7)
[21] = target: JAK2 JH1 JH2 (human) (UniProt O60674)
[22] = target: SGK1 (human) (UniProt O00141)
[23] = target: PLK3 (human) (UniProt Q9H4B4)
[24] = target: MAPK10 (human) (UniProt P53779)
[25] = target: JAK1 JH1 JH2 (human) (UniProt P23458)
[26] = target: MAPK1 (human) (UniProt P28482)
[27] = target: MAP3K5 (human) (UniProt Q99683)
[28] = target: PIM3 (human) (UniProt Q86V86)
[29] = target: MAPK9 (human) (UniProt P45984)
[30] = target: OXSR1 (human) (UniProt O95747)
[31] = target: HIPK2 (human) (UniProt Q9H2X6)
[32] = target: ITK (human) (UniProt Q08881)
[33] = system: LYN (human), P07948 [23-43 del]

Chain of ITK (human) (Q08881 whole entry, looked up): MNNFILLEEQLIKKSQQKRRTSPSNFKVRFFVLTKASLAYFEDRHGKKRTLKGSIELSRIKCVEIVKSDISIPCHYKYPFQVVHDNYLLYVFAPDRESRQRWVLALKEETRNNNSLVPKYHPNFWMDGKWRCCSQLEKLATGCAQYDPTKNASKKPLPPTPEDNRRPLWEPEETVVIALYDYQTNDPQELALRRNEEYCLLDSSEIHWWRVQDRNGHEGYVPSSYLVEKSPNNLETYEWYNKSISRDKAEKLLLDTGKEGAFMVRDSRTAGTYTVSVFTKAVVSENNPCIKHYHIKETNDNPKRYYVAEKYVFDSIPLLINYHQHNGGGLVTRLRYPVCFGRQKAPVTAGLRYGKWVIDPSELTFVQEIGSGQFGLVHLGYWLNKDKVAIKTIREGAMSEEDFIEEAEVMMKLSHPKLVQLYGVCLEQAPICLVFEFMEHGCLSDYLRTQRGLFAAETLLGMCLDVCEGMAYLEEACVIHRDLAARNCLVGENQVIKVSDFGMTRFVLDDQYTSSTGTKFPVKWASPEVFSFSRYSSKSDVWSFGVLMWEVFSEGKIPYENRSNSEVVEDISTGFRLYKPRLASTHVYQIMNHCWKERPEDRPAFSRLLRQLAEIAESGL
Chain of TGFBR1 (human) (P36897 whole entry, looked up): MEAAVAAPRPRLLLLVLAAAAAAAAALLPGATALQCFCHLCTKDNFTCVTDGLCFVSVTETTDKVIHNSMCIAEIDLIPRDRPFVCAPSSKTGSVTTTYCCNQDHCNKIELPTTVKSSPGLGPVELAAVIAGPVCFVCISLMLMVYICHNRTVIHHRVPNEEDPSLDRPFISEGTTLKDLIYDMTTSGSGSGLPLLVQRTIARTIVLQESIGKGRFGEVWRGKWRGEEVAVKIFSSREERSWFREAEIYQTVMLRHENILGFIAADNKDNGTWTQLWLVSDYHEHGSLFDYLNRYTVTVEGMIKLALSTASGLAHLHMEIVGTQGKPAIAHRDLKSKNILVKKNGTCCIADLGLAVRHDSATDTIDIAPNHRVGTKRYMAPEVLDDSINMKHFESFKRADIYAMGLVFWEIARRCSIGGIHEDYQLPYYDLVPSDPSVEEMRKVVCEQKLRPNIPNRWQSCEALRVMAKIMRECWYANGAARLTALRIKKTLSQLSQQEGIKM
Chain of MAP3K5 (human) (Q99683 whole entry, looked up): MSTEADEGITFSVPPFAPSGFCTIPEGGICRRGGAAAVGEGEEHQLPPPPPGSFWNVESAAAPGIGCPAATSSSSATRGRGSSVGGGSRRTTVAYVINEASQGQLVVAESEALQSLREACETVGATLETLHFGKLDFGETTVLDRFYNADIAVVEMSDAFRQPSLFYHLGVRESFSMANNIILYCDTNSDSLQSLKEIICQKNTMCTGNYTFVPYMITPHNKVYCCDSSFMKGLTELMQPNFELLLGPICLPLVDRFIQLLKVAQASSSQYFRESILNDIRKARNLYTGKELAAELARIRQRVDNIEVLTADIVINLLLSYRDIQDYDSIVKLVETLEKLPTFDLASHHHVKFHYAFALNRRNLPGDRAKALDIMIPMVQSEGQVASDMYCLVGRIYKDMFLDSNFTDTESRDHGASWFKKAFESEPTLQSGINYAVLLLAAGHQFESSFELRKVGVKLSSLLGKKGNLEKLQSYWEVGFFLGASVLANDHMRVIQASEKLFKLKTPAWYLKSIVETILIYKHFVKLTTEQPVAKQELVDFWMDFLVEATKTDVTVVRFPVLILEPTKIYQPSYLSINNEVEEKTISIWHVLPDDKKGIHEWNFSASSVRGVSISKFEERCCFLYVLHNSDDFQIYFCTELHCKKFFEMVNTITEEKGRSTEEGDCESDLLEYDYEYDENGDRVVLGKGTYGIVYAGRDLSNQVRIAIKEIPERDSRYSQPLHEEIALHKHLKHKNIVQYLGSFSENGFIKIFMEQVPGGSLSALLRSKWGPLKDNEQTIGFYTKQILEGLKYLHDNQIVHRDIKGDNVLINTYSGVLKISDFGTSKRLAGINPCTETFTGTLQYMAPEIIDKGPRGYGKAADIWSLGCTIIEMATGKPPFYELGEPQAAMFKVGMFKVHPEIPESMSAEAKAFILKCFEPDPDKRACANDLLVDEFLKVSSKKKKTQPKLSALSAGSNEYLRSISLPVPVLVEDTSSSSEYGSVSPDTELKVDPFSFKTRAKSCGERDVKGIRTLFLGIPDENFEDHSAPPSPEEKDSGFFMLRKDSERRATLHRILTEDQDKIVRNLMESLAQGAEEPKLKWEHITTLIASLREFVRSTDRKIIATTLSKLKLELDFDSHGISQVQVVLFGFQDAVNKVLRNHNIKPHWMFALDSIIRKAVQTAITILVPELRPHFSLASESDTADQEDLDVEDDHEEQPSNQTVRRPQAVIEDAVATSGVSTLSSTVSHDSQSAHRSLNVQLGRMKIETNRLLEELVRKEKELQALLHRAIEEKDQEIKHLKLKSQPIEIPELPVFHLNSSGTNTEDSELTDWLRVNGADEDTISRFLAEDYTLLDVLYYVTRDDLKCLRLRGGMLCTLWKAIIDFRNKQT
Chain of CSNK2A2 (human) (P19784 whole entry, looked up): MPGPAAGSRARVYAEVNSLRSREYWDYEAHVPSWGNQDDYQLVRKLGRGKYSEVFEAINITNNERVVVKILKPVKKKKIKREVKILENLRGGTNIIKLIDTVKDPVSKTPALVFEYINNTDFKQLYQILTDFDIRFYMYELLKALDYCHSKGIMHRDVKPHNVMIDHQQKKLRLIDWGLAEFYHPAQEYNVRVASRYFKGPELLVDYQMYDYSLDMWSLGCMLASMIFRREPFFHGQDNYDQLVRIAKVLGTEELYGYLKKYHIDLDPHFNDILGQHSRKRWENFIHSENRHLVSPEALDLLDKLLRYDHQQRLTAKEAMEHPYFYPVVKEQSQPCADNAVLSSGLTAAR
Chain of MAPKAPK2 (human) (P49137 whole entry, looked up): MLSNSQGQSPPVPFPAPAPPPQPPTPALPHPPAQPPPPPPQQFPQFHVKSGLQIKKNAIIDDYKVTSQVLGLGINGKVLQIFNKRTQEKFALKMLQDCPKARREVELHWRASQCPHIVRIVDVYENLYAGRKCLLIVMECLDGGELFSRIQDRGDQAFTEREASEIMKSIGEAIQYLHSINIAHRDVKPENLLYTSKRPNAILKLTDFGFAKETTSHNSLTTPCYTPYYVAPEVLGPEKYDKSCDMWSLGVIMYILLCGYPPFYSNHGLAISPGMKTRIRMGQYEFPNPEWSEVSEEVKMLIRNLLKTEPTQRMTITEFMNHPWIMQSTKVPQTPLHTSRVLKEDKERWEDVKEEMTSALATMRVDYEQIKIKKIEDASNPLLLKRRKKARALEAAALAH
Chain of FER (human) (P16591 whole entry, looked up): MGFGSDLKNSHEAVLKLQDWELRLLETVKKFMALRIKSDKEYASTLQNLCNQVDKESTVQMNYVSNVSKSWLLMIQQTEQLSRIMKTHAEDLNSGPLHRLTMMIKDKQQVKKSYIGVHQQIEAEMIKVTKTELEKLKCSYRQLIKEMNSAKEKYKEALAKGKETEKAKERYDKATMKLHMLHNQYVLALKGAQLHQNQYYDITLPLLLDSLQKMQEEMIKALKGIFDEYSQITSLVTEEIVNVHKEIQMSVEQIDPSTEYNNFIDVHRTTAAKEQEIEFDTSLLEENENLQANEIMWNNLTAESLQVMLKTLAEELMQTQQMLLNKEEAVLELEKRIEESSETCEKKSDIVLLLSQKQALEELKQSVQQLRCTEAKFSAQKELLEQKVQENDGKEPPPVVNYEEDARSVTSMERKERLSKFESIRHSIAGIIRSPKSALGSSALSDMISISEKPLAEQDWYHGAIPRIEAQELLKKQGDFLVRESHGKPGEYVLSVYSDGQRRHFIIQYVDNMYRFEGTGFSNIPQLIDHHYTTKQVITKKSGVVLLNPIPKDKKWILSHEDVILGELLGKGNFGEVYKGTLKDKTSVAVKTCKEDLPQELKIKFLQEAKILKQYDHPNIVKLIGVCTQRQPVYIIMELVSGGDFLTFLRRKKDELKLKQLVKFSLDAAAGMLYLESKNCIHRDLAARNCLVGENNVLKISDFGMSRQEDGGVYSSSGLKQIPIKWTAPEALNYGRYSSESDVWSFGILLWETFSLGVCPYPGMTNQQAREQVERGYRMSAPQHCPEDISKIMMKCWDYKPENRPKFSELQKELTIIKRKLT
Chain of CDK1 CCNA2 (human) (P06493 whole entry, looked up): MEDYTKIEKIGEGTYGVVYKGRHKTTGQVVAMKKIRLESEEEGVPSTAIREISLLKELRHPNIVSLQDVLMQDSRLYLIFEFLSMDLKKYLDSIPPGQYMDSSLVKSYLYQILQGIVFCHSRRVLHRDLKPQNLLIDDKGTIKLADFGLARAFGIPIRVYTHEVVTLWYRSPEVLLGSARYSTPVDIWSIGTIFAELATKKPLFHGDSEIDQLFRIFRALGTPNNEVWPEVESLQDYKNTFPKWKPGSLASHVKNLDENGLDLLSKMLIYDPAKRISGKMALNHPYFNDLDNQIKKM
Chain of CDK1 CCNA2 (human) (P20248 whole entry, looked up): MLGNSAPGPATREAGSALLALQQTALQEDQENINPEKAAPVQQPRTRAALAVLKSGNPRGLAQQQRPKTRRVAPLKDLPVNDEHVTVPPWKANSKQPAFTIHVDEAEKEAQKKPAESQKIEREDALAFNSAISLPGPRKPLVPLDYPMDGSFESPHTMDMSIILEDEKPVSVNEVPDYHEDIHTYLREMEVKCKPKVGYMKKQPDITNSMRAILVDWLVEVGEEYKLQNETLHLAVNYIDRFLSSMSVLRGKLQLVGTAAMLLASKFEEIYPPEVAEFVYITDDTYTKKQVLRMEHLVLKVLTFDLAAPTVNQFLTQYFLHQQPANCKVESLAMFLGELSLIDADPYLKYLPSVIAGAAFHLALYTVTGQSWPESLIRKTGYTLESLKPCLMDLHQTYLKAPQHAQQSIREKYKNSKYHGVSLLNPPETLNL

residual activity [1]: 92.5% | residual activity [2]: 102% | residual activity [3]: 98.5% | residual activity [4]: 95% | residual activity [5]: 91.5% | residual activity [6]: 104% | residual activity [7]: 99.5% | residual activity [8]: 76.5% | residual activity [9]: 102% | residual activity [10]: 104% | residual activity [11]: 99% | residual activity [12]: 85.5% | residual activity [13]: 106% | residual activity [14]: 95.5% | residual activity [15]: 79% | residual activity [16]: 89% | residual activity [17]: 100% | residual activity [18]: 99.5% | residual activity [19]: 92% | residual activity [20]: 97.5% | residual activity [21]: 91.5% | residual activity [22]: 99% | residual activity [23]: 106% | residual activity [24]: 105% | residual activity [25]: 97.5% | residual activity [26]: 95% | residual activity [27]: 102% | residual activity [28]: 93.5% | residual activity [29]: 80.5% | residual activity [30]: 92.5% | residual activity [31]: 90% | residual activity [32]: 89.5% | residual activity [33]: 92%
Compound: CC[C@H](C)n1cc(C)c2c(C(=O)NCc3c(C)cc(C)[nH]c3=O)cc(-c3ccc(N4CCNCC4)nc3)cc21
